From paper PMC12029836, “Phytotoxicity, Cytotoxicity, and Antimicrobial Activity of Triethanolammonium Amino Acids Salts” (Molecules, 2025)
Values joined by “and” are separate entries in the source; they are usually repeats but may differ in a detail not shown here. Identical values can stand only once. Like-named read-outs stand apart in the source and are kept apart here.

How the values were obtained:
C. albicans ATCC 10231 = assay: Antimicrobial activity, broth microdilution MIC/MBC; format: cell-based, Candida albicans; settings: C. albicans ATCC 10231, 24 h at 37 °C, at least 90% growth inhibition; nd—not detected
[1] = tested on: Lepidium sativum L. seeds; settings: 24 h incubation, mean(±SD), n = 3
[2] = tested on: Lepidium sativum L. roots; settings: 24 h incubation, mean(±SD), n = 3
L929 fibroblasts = assay: Mammalian cell cytotoxicity screening, resazurin viability; format: cell-based, mouse
[3] = 0.01% (w/w) compound in the medium
[4] = 0.03% (w/w) compound in the medium
[5] = 0.05% (w/w) compound in the medium
[6] = 0.10% (w/w) compound in the medium
[7] = 0.30% (w/w) compound in the medium
[8] = 0.50% (w/w) compound in the medium
[9] = 1.00% (w/w) compound in the medium
[10] = 2.00% (w/w) compound in the medium
[11] = 3.00% (w/w) compound in the medium
[12] = 4.00% (w/w) compound in the medium
[13] = 5.00% (w/w) compound in the medium

## N[C@@H](Cc1c[nH]cn1)C(=O)O.OCCN(CCO)CCO [[TEA][His]]
C. albicans ATCC 10231
  MIC (%): 2.50%
[1]; [3]
  Inhibition of the Lepidium sativum seeds germination (ISG, %): 0.0(±0.0) %
[1]; [4]
  Inhibition of the Lepidium sativum seeds germination (ISG, %): 1.9(±0.5) %
[1]; [5]
  Inhibition of the Lepidium sativum seeds germination (ISG, %): 3.7(±0.9) %
[1]; [6]
  Inhibition of the Lepidium sativum seeds germination (ISG, %): 5.6(±0.5) %
[1]; [7]
  Inhibition of the Lepidium sativum seeds germination (ISG, %): 7.4(±0.5) %
[1]; [8]
  Inhibition of the Lepidium sativum seeds germination (ISG, %): 9.3(±0.5) %
[1]; [9]
  Inhibition of the Lepidium sativum seeds germination (ISG, %): 12.0(±1.4) %
[1]; [10]
  Inhibition of the Lepidium sativum seeds germination (ISG, %): 14.8(±0.9) %
[1]; [11]
  Inhibition of the Lepidium sativum seeds germination (ISG, %): 25.9(±1.2) %
[1]; [12]
  Inhibition of the Lepidium sativum seeds germination (ISG, %): 27.8(±2.8) %
[1]; [13]
  Inhibition of the Lepidium sativum seeds germination (ISG, %): 74.1(±0.5) %
[2]; [3]
  Inhibition of the root growth in pregerminated Lepidium sativum seeds (IRG, %): 1.1(±2.2) %
[2]; [4]
  Inhibition of the root growth in pregerminated Lepidium sativum seeds (IRG, %): 12.9(±2.1) %
[2]; [5]
  Inhibition of the root growth in pregerminated Lepidium sativum seeds (IRG, %): 15.7(±2.2) %
[2]; [6]
  Inhibition of the root growth in pregerminated Lepidium sativum seeds (IRG, %): 22.1(±2.1) %
[2]; [7]
  Inhibition of the root growth in pregerminated Lepidium sativum seeds (IRG, %): 28.6%
[2]; [8]
  Inhibition of the root growth in pregerminated Lepidium sativum seeds (IRG, %): 37.1(±2.0) %
[2]; [9]
  Inhibition of the root growth in pregerminated Lepidium sativum seeds (IRG, %): 48.6(±1.6) %
[2]; [10]
  Inhibition of the root growth in pregerminated Lepidium sativum seeds (IRG, %): 62.9(±1.2) %
[2]; [11]
  Inhibition of the root growth in pregerminated Lepidium sativum seeds (IRG, %): 72.9(±0.9) %
[2]; [12]
  Inhibition of the root growth in pregerminated Lepidium sativum seeds (IRG, %): 80.0(±0.8) %
[2]; [13]
  Inhibition of the root growth in pregerminated Lepidium sativum seeds (IRG, %): 84.3(±0.7) %

## CC(C)C[C@H](N)C(=O)O.OCCN(CCO)CCO [[TEA][Leu]]
L929 fibroblasts; 24h exposure
  ED20: 0.23±0.02%
  ED50: 0.51±0.22%
  ED80: 0.93±0.07%
L929 fibroblasts; 48h exposure
  ED20: 0.21±0.01%
  ED50: 0.51±0.01%
  ED80: 0.82±0.03%
[1]; [3]
  Inhibition of the Lepidium sativum seeds germination (ISG, %): 0.0(±1.9) %
[1]; [4]
  Inhibition of the Lepidium sativum seeds germination (ISG, %): 0.0(±1.9) %
[1]; [5]
  Inhibition of the Lepidium sativum seeds germination (ISG, %): 5.7(±0.5) %
[1]; [6]
  Inhibition of the Lepidium sativum seeds germination (ISG, %): 6.6(±0.9) %
[1]; [7]
  Inhibition of the Lepidium sativum seeds germination (ISG, %): 7.5(±2.1) %
[1]; [8]
  Inhibition of the Lepidium sativum seeds germination (ISG, %): 11.3(±0.8) %
[1]; [9]
  Inhibition of the Lepidium sativum seeds germination (ISG, %): 15.1(±1.6) %
[1]; [10]
  Inhibition of the Lepidium sativum seeds germination (ISG, %): 32.1(±0.1) %
[1]; [11]
  Inhibition of the Lepidium sativum seeds germination (ISG, %): 58.5%
[1]; [12]
  Inhibition of the Lepidium sativum seeds germination (ISG, %): 84.9(±2.5) %
[1]; [13]
  Inhibition of the Lepidium sativum seeds germination (ISG, %): 100(±0.1) %
[2]; [3]
  Inhibition of the root growth in pregerminated Lepidium sativum seeds (IRG, %): 0.0(±0.0) %
[2]; [4]
  Inhibition of the root growth in pregerminated Lepidium sativum seeds (IRG, %): 8.9(±2.5) %
[2]; [5]
  Inhibition of the root growth in pregerminated Lepidium sativum seeds (IRG, %): 10.5(±2.1) %
[2]; [6]
  Inhibition of the root growth in pregerminated Lepidium sativum seeds (IRG, %): 20.3(±1.7) %
[2]; [7]
  Inhibition of the root growth in pregerminated Lepidium sativum seeds (IRG, %): 30.0(±1.9) %
[2]; [8]
  Inhibition of the root growth in pregerminated Lepidium sativum seeds (IRG, %): 39.9(±1.5) %
[2]; [9]
  Inhibition of the root growth in pregerminated Lepidium sativum seeds (IRG, %): 53.0(±1.0) %
[2]; [10]
  Inhibition of the root growth in pregerminated Lepidium sativum seeds (IRG, %): 67.9(±0.9) %
[2]; [11]
  Inhibition of the root growth in pregerminated Lepidium sativum seeds (IRG, %): 71.6(±0.8) %
[2]; [12]
  Inhibition of the root growth in pregerminated Lepidium sativum seeds (IRG, %): 88.7(±0.7) %
[2]; [13]
  Inhibition of the root growth in pregerminated Lepidium sativum seeds (IRG, %): 94.7(±0.5) %

## CSCC[C@H](N)C(=O)O.OCCN(CCO)CCO [[TEA][Met]]
L929 fibroblasts; 24h exposure
  ED20: 0.08±0.01%
  ED50: 0.29±0.02% and 0.29%
  ED80: 0.74±0.08%
L929 fibroblasts; 48h exposure
  ED20: 0.09±0.01%
  ED50: 0.31±0.02%
  ED80: 0.78±0.06%
C. albicans ATCC 10231
  MIC (%): 5.00%
[1]; [3]
  Inhibition of the Lepidium sativum seeds germination (ISG, %): 0.0(±0.2) %
[1]; [4]
  Inhibition of the Lepidium sativum seeds germination (ISG, %): 0.0(±0.1) %
[1]; [5]
  Inhibition of the Lepidium sativum seeds germination (ISG, %): 0.0(±0.1) %
[1]; [6]
  Inhibition of the Lepidium sativum seeds germination (ISG, %): 0.0(±0.1) %
[1]; [7]
  Inhibition of the Lepidium sativum seeds germination (ISG, %): 0.0(±0.0) %
[1]; [8]
  Inhibition of the Lepidium sativum seeds germination (ISG, %): 1.9(±1.3) %
[1]; [9]
  Inhibition of the Lepidium sativum seeds germination (ISG, %): 3.7(±0.5) %
[1]; [10]
  Inhibition of the Lepidium sativum seeds germination (ISG, %): 7.4(±0.9) %
[1]; [12]
  Inhibition of the Lepidium sativum seeds germination (ISG, %): 29.6(±0.8) %
[1]; [13]
  Inhibition of the Lepidium sativum seeds germination (ISG, %): 37.0(±2.5) %
[2]; [3]
  Inhibition of the root growth in pregerminated Lepidium sativum seeds (IRG, %): 0.0(±0.0) %
[2]; [4]
  Inhibition of the root growth in pregerminated Lepidium sativum seeds (IRG, %): 0.0(±0.0) %
[2]; [5]
  Inhibition of the root growth in pregerminated Lepidium sativum seeds (IRG, %): 0.0(±0.0) %
[2]; [7]
  Inhibition of the root growth in pregerminated Lepidium sativum seeds (IRG, %): 22.8(±3.3) %
[2]; [8]
  Inhibition of the root growth in pregerminated Lepidium sativum seeds (IRG, %): 30.1(±3.8) %
[2]; [9]
  Inhibition of the root growth in pregerminated Lepidium sativum seeds (IRG, %): 52.1(±2.2) %
[2]; [10]
  Inhibition of the root growth in pregerminated Lepidium sativum seeds (IRG, %): 60.7(±2.0) %
[2]; [11]
  Inhibition of the root growth in pregerminated Lepidium sativum seeds (IRG, %): 64.9(±1.4) %
[2]; [12]
  Inhibition of the root growth in pregerminated Lepidium sativum seeds (IRG, %): 77.4(±1.3) %
[2]; [13]
  Inhibition of the root growth in pregerminated Lepidium sativum seeds (IRG, %): 77.8(±0.9) %
